From patent publication US20240067632A1, “WEE1 Degrading Compounds and Uses Thereof” (Bristol-Myers Squibb Company, priority 2022, published 2024)
pEC50: −log10 of the molar value. Where two headings read alike, the source gives them in different places.

Experiments:
[1] = system: MKN45 cells; assay: MKN45 cell proliferation assay (Cell-Titer-Glo, 120 h); format: cell-based; details: for pEC50: Homo sapiens, MKN-45, 120 h, Cell-Titer-Glo, read-out: MKN45 Cell Prolif. 120 hr (EC50); for MKN45 Cell Prolif. 120 hr (Ymin-Obs): minimal percent of DMSO control observed in the concentrations tested
Outline: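 Growth inhibition was read as blank-corrected Cell-Titer-Glo luminescence expressed as percent DMSO control after 120 h at 37 C, 400 cells/well. Compounds tested in triplicate as 10-point half-log series from 1 or 10 uM, 0.1% DMSO; four-parameter fit gave EC50, and lowest observed percent control was reported as Ymin-obs.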

[2] = target: T1, WEE1 (Homo sapiens, UniProt P30291+Q96SW2); assay: WEE1-ePL degradation assay (LentiX-WEE1-ePL-GSPT1-ND cells, InCELL Hunter luminescence, 4 h); format: cell-based; details: 293T-LentiX WEE1-ePL cells; for DC50: read-out: 293T-LentiX WEE1-ePL Degradation 4 hr (EC50)
T1 construct: C-terminal ePL-tagged (DiscoverX, Fremont, CA) full-length WEE1 expression construct; expressed in transfected cells; host or cells: LentiX-HEK293T (Invitrogen), lentiviral transduction; co-expressing GSPT1-GN (G576N, lacking the first 158 amino acids)
Outline: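 First, compounds were pre-plated as 10-point, 3-fold dilutions (top 1 uM or 10 uM) with DMSO control; next, WEE1-ePL-expressing HEK293T cells were added and held 4 h at 37 °C; finally, InCELL Hunter reagent was applied for 30 min before luminescence reading. A 4PL fit gave EC50 and Ymin.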

[3] = lower limit of the fit (0 = luciferase inhibitor, Ymax = DMSO control)
[4] = lower limit of the fit (Ymin=0 luciferase inhibitor, Ymax DMSO control)

Structure (SMILES) | pEC50 ([1]; growth inhibition) | MKN45 Cell Prolif. 120 hr (Ymin-Obs) [1] | 293T-LentiX WEE1-ePL Degradation 4 hr (Ymin) [2, 3] | DC50 [2] [nM] | pEC50 [1] | 293T-LentiX WEE1-ePL Degradation 4 hr (Ymin) [2, 4]
O=C1CCC(N2Cc3cc(O[C@H]4CCN(Cc5cc(-c6cccc(N7CCOCC7)c6)ccn5)C4)ccc3C2=O)C(=O)N1 (stereo partly drawn) [3-(5-{[(3S)-1-({4-[3-(morpholin-4-yl)phenyl]pyridin-2-yl}methyl)pyrrolidin-3-yl]oxy}-1-oxo-2,3-dihydro-1H-isoindol-2-yl)piperidine-2,6-dione] | 8.13 | 4.54 | 28 | 2.32 | – | –
CC1(C)C[C@@H](c2ccc3cc(CN4CC[C@H](Oc5ccc6c(c5)CN([C@H]5CCC(=O)NC5=O)C6=O)C4)cc(F)c3n2)CCO1 [(3S)-3-(5-{[(3S)-1-({2-[(4S)-2,2-dimethyloxan-4-yl]-8-fluoroquinolin-6-yl}methyl)pyrrolidin-3-yl]oxy}-1-oxo-2,3-dihydro-1H-isoindol-2-yl)piperidine-2,6-dione] | – | 9.621 | – | 3.8 | 8.78 | 28.17
O=C1CCC(N2Cc3cc(O[C@H]4CCN(Cc5ccc6cccnc6c5)C4)ccc3C2=O)C(=O)N1 (stereo partly drawn) [3-(1-oxo-5-{[(3S)-1-[(quinolin-7-yl)methyl]pyrrolidin-3-yl]oxy}-2,3-dihydro-1H-isoindol-2-yl)piperidine-2,6-dione] | < 5.00 | 76.22 | 57 | 30.1 | – | –
O=C1CCC(N2Cc3cc(O[C@H]4CCN(Cc5ccc6nc([C@H]7CCOC7)ccc6c5)C4)ccc3C2=O)C(=O)N1 (stereo partly drawn) [3-(1-oxo-5-{[(3S)-1-({2-[(3R)-oxolan-3-yl]quinolin-6-yl}methyl)pyrrolidin-3-yl]oxy}-2,3-dihydro-1H-isoindol-2-yl)piperidine-2,6-dione] | 8.22 | 8.454 | 29 | 2.71 | – | –
COCc1ccc2nc(CN3CC[C@H](Oc4ccc5c(c4)CN(C4CCC(=O)NC4=O)C5=O)C3)ccc2c1 (stereo partly drawn) [3-(5-{[(3S)-1-{[6-(methoxymethyl)quinolin-2-yl]methyl}pyrrolidin-3-yl]oxy}-1-oxo-2,3-dihydro-1H-isoindol-2-yl)piperidine-2,6-dione] | 7.05 | 26.02 | 46 | 11.7 | – | –
O=C1CCC(N2Cc3cc(O[C@H]4CCN(Cc5ccc6nc(N7CCC78COC8)ncc6c5)C4)ccc3C2=O)C(=O)N1 (stereo partly drawn) [3-(5-{[(3S)-1-[(2-{6-oxa-1-azaspiro[3.3]heptan-1-yl}quinazolin-6-yl)methyl]pyrrolidin-3-yl]oxy}-1-oxo-2,3-dihydro-1H-isoindol-2-yl)piperidine-2,6-dione] | 7.85 | 14.05 | 37 | 8.5 | – | –
O=C1CCC(N2Cc3cc(O[C@H]4CCN(Cc5ccc6nc([C@@H]7CC[C@@H](O)C7)ccc6c5)C4)ccc3C2=O)C(=O)N1 (stereo partly drawn) [3-(5-{[(3S)-1-({2-[(1R,3R)-3-hydroxycyclopentyl]quinolin-6-yl}methyl)pyrrolidin-3-yl]oxy}-1-oxo-2,3-dihydro-1H-isoindol-2-yl)piperidine-2,6-dione] | 8.86 | 8.2675 | 31.5 | 2.6 | – | –
O=C1CCC(N2Cc3cc(O[C@H]4CCN(Cc5ccc6nc(N7[C@@H]8COC[C@H]7C8)ncc6c5)C4)ccc3C2=O)C(=O)N1 (stereo partly drawn) [3-(5-{[(3S)-1-({2-[(1R,5S)-3-oxa-6-azabicyclo[3.1.1]heptan-6-yl]quinazolin-6-yl}methyl)pyrrolidin-3-yl]oxy}-1-oxo-2,3-dihydro-1H-isoindol-2-yl)piperidine-2,6-dione] | 7.77 | 10.76 | 38 | 117 | – | –
O=C1CCC(N2Cc3cc(O[C@H]4CCN(Cc5cc6ccccc6[nH]c5=O)C4)ccc3C2=O)C(=O)N1 (stereo partly drawn) [3-(1-oxo-5-{[(3S)-1-[(2-oxo-1,2-dihydroquinolin-3-yl)methyl]pyrrolidin-3-yl]oxy}-2,3-dihydro-1H-isoindol-2-yl)piperidine-2,6-dione] | 5.77 | 30.3825 | 37.28 | 112 | – | –
CN1CC[C@@H](c2ncc3cc(CN4CC[C@H](Oc5ccc6c(c5)CN(C5CCC(=O)NC5=O)C6=O)C4)ccc3n2)C1 (stereo partly drawn) [3-(5-{[(3S)-1-({2-[(3R)-1-methylpyrrolidin-3-yl]quinazolin-6-yl}methyl)pyrrolidin-3-yl]oxy}-1-oxo-2,3-dihydro-1H-isoindol-2-yl)piperidine-2,6-dione] | – | 13.19 | – | 225 | 7.32 | 37.05
O=C1CCC(N2Cc3cc(O[C@H]4CCN(Cc5cc6ncccc6cn5)C4)ccc3C2=O)C(=O)N1 (stereo partly drawn) [3-(5-{[(3S)-1-[(1,6-naphthyridin-7-yl)methyl]pyrrolidin-3-yl]oxy}-1-oxo-2,3-dihydro-1H-isoindol-2-yl)piperidine-2,6-dione] | 6.02 | 84.48 | 67.53 | 122 | – | –
O=C1CCC(N2Cc3cc(O[C@H]4CCN(Cc5ccc6nc(N7CCC[C@]78CCOC8)ccc6c5)C4)ccc3C2=O)C(=O)N1 (stereo partly drawn) [3-(5-{[(3S)-1-({2-[(5R)-7-oxa-1-azaspiro[4.4]nonan-1-yl]quinolin-6-yl}methyl)pyrrolidin-3-yl]oxy}-1-oxo-2,3-dihydro-1H-isoindol-2-yl)piperidine-2,6-dione] | 7.96 | 17.85 | 46 | 6.81 | – | –
O=C1CCC(N2Cc3cc(O[C@H]4CCN(Cc5ccc6nc([C@H]7CC[C@H](O)C7)ccc6c5)C4)ccc3C2=O)C(=O)N1 (stereo partly drawn) [3-(5-{[(3S)-1-({2-[(1S,3S)-3-hydroxycyclopentyl]quinolin-6-yl}methyl)pyrrolidin-3-yl]oxy}-1-oxo-2,3-dihydro-1H-isoindol-2-yl)piperidine-2,6-dione] | 8.49 | 8.695 | 27.5 | 2.67 | – | –
CN1CC(c2ccc3cc(CN4CC[C@H](Oc5ccc6c(c5)CN(C5CCC(=O)NC5=O)C6=O)C4)ccc3n2)C1 (stereo partly drawn) [3-(5-{[(3S)-1-{[2-(1-methylazetidin-3-yl)quinolin-6-yl]methyl}pyrrolidin-3-yl]oxy}-1-oxo-2,3-dihydro-1H-isoindol-2-yl)piperidine-2,6-dione] | 7.03 | 11.97 | 32 | 100 | – | –
O=C1CCC(N2Cc3cc(O[C@H]4CCN(Cc5ccc6nnccc6c5)C4)ccc3C2=O)C(=O)N1 (stereo partly drawn) [3-(5-{[(3S)-1-[(cinnolin-6-yl)methyl]pyrrolidin-3-yl]oxy}-1-oxo-2,3-dihydro-1H-isoindol-2-yl)piperidine-2,6-dione] | 7.48 | 8.19 | 26.65 | 12.5 | – | –
N#Cc1ncc2cc(CN3CC[C@H](Oc4ccc5c(c4)CN(C4CCC(=O)NC4=O)C5=O)C3)ccc2n1 (stereo partly drawn) [6-{[(3S)-3-{[2-(2,6-dioxopiperidin-3-yl)-1-oxo-2,3-dihydro-1H-isoindol-5-yl]oxy}pyrrolidin-1-yl]methyl}quinazoline-2-carbonitrile] | 7.14 | 17.27 | 35 | 12.1 | – | –
